This is an account of results in PubChem BioAssay AID1996.

The structures appear in SMILES notation. ≈ marks a conversion by molar mass, not a printed value. Bounds are passed on as bounds.

For this series the following is noted: buffer; pH 7.4; 200.0 µM.
Turning to `C#CCOC(=O)C[N+](C)(C)CC#Cc1ccccc1.[Cl-]`, the solubility (kinetic) (in general, solubility judged after dilution from a stock solution rather than from solid) was 43.1 µg/mL.

`O=C(NC1CCCC1)c1ccccc1OCc1ccccc1`: the kinetic solubility was 15 µg/mL (≈ 50.8 µM).

In turn, `Clc1cccc(C2Nc3cccc4cccc(c34)N2)c1` gave a solubility (kinetic) of 5.3 µg/mL (≈ 18.9 µM).

On to `O=C(c1ccc2c(c1)OCO2)N1CCc2ccccc21`, for which the kinetic solubility was 34.9 µg/mL (≈ 131 µM). Against the preceding molecule, the solubility kinetic is about 6.6-fold higher.

As for `O=C(Nc1cccc(C(F)(F)F)c1)c1cncs1`, the solubility (kinetic) was above 40.8 µg/mL.

In the case of `COc1ccc(-c2[nH]ncc2CNC(C)Cc2cccc(C)n2)cc1F` (centres undefined), the solubility (kinetic) was above 53.2 µg/mL.

As for `COc1ccccc1NC(=O)C1CCCN1C(=O)NC1CCCCC1` (centres undefined), the solubility (kinetic) is 42.4 µg/mL (≈ 123 µM).

`CCC(NS(=O)(=O)c1cccs1)c1ccc(C)cc1` (centres undefined) came in with a kinetic solubility above 44.3 µg/mL.

As to `CCC(=O)Nc1c(-c2ccc(C)cc2)nc2ccc(C)cn12`, the solubility (kinetic) stood at 30.4 µg/mL (≈ 104 µM).

The molecule `CCN(CC(=O)Nc1c(F)cccc1F)C(=O)Cc1c[nH]c2ccccc12` came in with a solubility (kinetic) above 55.7 µg/mL.

`O=C(Cc1ccsc1)Nc1ccc(Cl)cc1Cl` yielded a kinetic solubility of 3.8 µg/mL (≈ 13.3 µM).

Molecule `CC(NC(=O)c1ccc([N+](=O)[O-])o1)C12CC3CC(CC(C3)C1)C2` (centres undefined) registered a solubility (kinetic) of 29.5 µg/mL (≈ 92.7 µM).

As for `Cc1cnc(C(=O)OCC(=O)c2ccc(F)c(F)c2)cn1`, the kinetic solubility was above 43.8 µg/mL.

The molecule `COc1ccc(CSc2ncnc3sccc23)cc1F` had a kinetic solubility below 0.3 µg/mL.

`CC(=O)c1cccc(NC(=O)c2cc(=O)[nH]c3ccc(S(=O)(=O)N4CCOCC4)cc23)c1` came in with a solubility (kinetic) of 8.5 µg/mL (≈ 18.7 µM).

The molecule `O=C(C[n+]1ccccc1)Nc1ccccc1C(F)(F)F.[Cl-]` displayed a solubility (kinetic) above 47.5 µg/mL.

The molecule `CCOC(=O)Cn1cc(C#N)c2cccc(CC)c21` displayed a solubility (kinetic) of 35.3 µg/mL (≈ 138 µM).

As for `COc1ccccc1C(=O)NC(=O)COC(=O)C1CCC1`, the solubility (kinetic) was above 43.7 µg/mL.

Regarding `COc1ccc(CCNC(=O)c2cc3ccccc3oc2=O)cc1`, the solubility (kinetic) is below 0.7 µg/mL.

Consider `C=CC[n+]1c(C)csc1Nc1cccc(Br)c1.[Br-]`, for which the kinetic solubility turned out to be 3.3 µg/mL.

`CCOC(=O)Nc1ccc2c(c1)N(C(=O)CCN1CCOCC1)c1ccccc1S2` yielded a kinetic solubility above 64.1 µg/mL.

`COc1cccc(C(=O)N2CCN(C(=O)C3CC3)CC2)c1` returned a kinetic solubility of 40.7 µg/mL (≈ 141 µM).

As to `CCOC(=O)C1CCN(C(=O)c2cc3ccccc3oc2=O)CC1`, the kinetic solubility is 48.4 µg/mL (≈ 147 µM).

As for `Cc1ccc(-c2nc(-c3ccncc3)no2)c(Cl)c1`, the kinetic solubility was found to be 0.5 µg/mL (≈ 1.84 µM).

With `COc1ccccc1/C=C/C(=O)OC(C)CN1CCCCC1.Cl` (centres undefined), the kinetic solubility was above 51 µg/mL.

In turn, `COc1ccc(NC(=O)COC(=O)CCc2ccc(S(=O)(=O)N3CCOCC3)cc2)cc1OC` returned a kinetic solubility of 62 µg/mL (≈ 126 µM).

In turn, `Cn1c(O)c(/C=C2\C=c3ccccc3=NC2=O)c(=O)n(C)c1=O` had a solubility (kinetic) above 46.7 µg/mL.

In the case of `Cc1nc(SCC(=O)NCC2CCCO2)[nH]c(=O)c1C` (centres undefined), the solubility (kinetic) is above 44.6 µg/mL.

In turn, `O=C(NCC1CCCO1)c1cccnc1NCc1ccc(F)cc1` (centres undefined) registered a solubility (kinetic) above 49.4 µg/mL.

`COC(=O)c1sccc1NC(=O)C1CC1` gave a solubility (kinetic) of 21.8 µg/mL (≈ 96.8 µM).

In the case of `COc1nc(N(C)C)nc(N(C#N)S(=O)(=O)c2ccc(C)cc2)n1`, the solubility (kinetic) was determined as 51.7 µg/mL (≈ 148 µM).

Consider `CN(CCO)C(=O)c1ccc(-c2nn(C)c(=O)c3ccccc23)cc1`, for which the solubility (kinetic) was above 50.6 µg/mL.

`Cc1ccsc1-c1nc(CN2C[C@@H](C)O[C@@H](C)C2)c(C)o1` registered a kinetic solubility above 46 µg/mL.

The molecule `CC(Sc1ccccn1)C(=O)Nc1ccc2c(c1)OCO2` (centres undefined) had a solubility (kinetic) of 39 µg/mL (≈ 129 µM).

Consider `Cc1ccc2c(c1)c1c3n2CCN(CCC(=O)O)C3CCC1` (centres undefined), for which the solubility (kinetic) is above 44.8 µg/mL.

`Cc1cccc(NC(=O)c2ccc(OCc3c(C)noc3C)cc2)c1C` gave a kinetic solubility of 3.4 µg/mL (≈ 9.7 µM).

Regarding `O=C(CSc1nccn1-c1cccc(F)c1)NC1CCCC1`, the solubility (kinetic) is above 47.9 µg/mL.

Molecule `Cc1cccc(NC(=O)C(C)N2CC=C(c3ccccc3)CC2)c1` (centres undefined) gave a kinetic solubility of 2.9 µg/mL (≈ 9.05 µM).

`Clc1ccc2nc(-c3ccccc3)cn2c1` showed a kinetic solubility of 1.4 µg/mL (≈ 6.12 µM).

The molecule `O=C(/C=C/c1cccc(F)c1)Nc1ccc(S(=O)(=O)N2CCOCC2)cc1` registered a kinetic solubility of 1 µg/mL (≈ 2.56 µM).

Take `O=C(CCNC(=O)c1ccccc1)Nc1cccnc1`: the solubility (kinetic) was above 40.4 µg/mL.

In turn, `COc1ccc(NC(=O)CNc2ccc(C#N)cc2)cc1` returned a solubility (kinetic) above 42.2 µg/mL.

`Nc1cc(OCC(F)(F)F)cc(OCC(F)(F)F)c1` displayed a solubility (kinetic) above 43.4 µg/mL.

Molecule `CN(C)C(=S)Nc1ccc(N2CCOCC2)cc1` displayed a solubility (kinetic) above 39.8 µg/mL.

`O=C(COC(=O)CC1CCS(=O)(=O)C1)Nc1ccc(F)cc1` (centres undefined): the kinetic solubility was above 49.4 µg/mL.

On to `CCCCN(C)Cc1cc(=O)oc2ccc3ccccc3c12`, for which the solubility (kinetic) came out at 1.8 µg/mL (≈ 6.09 µM).

Regarding `O=C(O)CCCN1C(=O)c2cccc3cccc(c23)C1=O`, the solubility (kinetic) turned out to be 31.8 µg/mL (≈ 112 µM).

In turn, `C=CCn1c(O)c(C(CC)=NCc2ccco2)c(=O)[nH]c1=O` came in with a kinetic solubility above 45.5 µg/mL.

`O=C(NCCC1CCCC1)c1cccs1` registered a kinetic solubility above 33.5 µg/mL.

Regarding `CCCN1CCN(C(=O)c2c(Cl)cnn2C)CC1`, the kinetic solubility was above 40.6 µg/mL.

`O=C1Nc2ccc(S(=O)(=O)NCC3CCCO3)c3cccc1c23` (centres undefined): the kinetic solubility is above 49.9 µg/mL.

`COc1ccc(S(=O)(=O)N(C)CC(=O)N2CCCCCC2)cc1` yielded a kinetic solubility above 51.1 µg/mL.

In turn, `O=c1[nH]c2ccccc2nc1Cc1ccc(Cl)cc1` returned a kinetic solubility of 0.9 µg/mL (≈ 3.32 µM).

Molecule `Cc1ccc2oc(C(=O)N3CCCCCC3)c(C)c2c1` yielded a kinetic solubility of 16.6 µg/mL (≈ 61.2 µM). Against the preceding molecule, the solubility kinetic is about 18-fold higher.

`COCCn1c(-c2ccc(F)cc2)nc2oc3cc(OC)ccc3c(=O)c2c1=O` yielded a solubility (kinetic) of 21.1 µg/mL (≈ 53.2 µM).

`Cc1ccc(-c2nc(NCCCO)c3ccccc3n2)cc1` gave a kinetic solubility of 37.3 µg/mL (≈ 127 µM). Against the preceding molecule, the solubility kinetic is about 1.8-fold higher.

`COc1cccc(/C=N/N2CCN(Cc3ccccc3)CC2)c1O` showed a kinetic solubility above 48.8 µg/mL.

In turn, `Cc1ccc(CNC(=O)c2c(-c3ccccc3Cl)noc2C)cc1` returned a kinetic solubility of 42.6 µg/mL (≈ 125 µM).

`COc1cccc(NC(=O)c2ccc3c(c2)CCN3S(C)(=O)=O)c1` gave a solubility (kinetic) above 52 µg/mL.

In turn, `CC(C)(C)c1ccc(C2(C)NC(=O)NC2=O)cc1` (centres undefined) registered a kinetic solubility of 35.2 µg/mL (≈ 143 µM).

`CC1CCN(CCn2c(=S)[nH]c3ccccc3c2=O)CC1` registered a kinetic solubility of 43.3 µg/mL (≈ 143 µM).

As to `COc1cc2c(cc1OC)CN(C(=O)COc1ccccc1C#N)CC2`, the solubility (kinetic) stood at 15 µg/mL (≈ 42.6 µM).

Consider `Cc1ccc(NC(=O)CO/N=C(\N)c2ccccc2)cc1C`, for which the solubility (kinetic) stood at 5 µg/mL (≈ 16.8 µM).

Regarding `COC(=O)c1cnc(N2CCOCC2)nc1C(F)(F)F`, the kinetic solubility came out at 35.3 µg/mL (≈ 121 µM).

For the molecule `CCOC(=O)C1CCN(C(=O)c2cc3cc(F)ccc3[nH]2)CC1`, the solubility (kinetic) is 32.4 µg/mL (≈ 102 µM).

As for `CNC(=O)c1sc(NCc2ccccc2OC)nc1C`, the solubility (kinetic) was above 43.7 µg/mL.

As for `Cc1ccc(N2C(S)=C(C#N)C(=O)NC2c2ccco2)cc1` (centres undefined), the kinetic solubility is above 46.7 µg/mL.

In turn, `CC(Sc1nnc(N)s1)C(=O)Nc1nccs1` (centres undefined) registered a kinetic solubility above 43.1 µg/mL.

Turning to `CCN1C(=O)/C(=C/N2CCc3ccccc3C2)SC1=S`, the kinetic solubility was below 0.3 µg/mL.

Take `O=[N+]([O-])c1ccccc1S(=O)(=O)NCCc1ccncc1`: the kinetic solubility was 43.8 µg/mL (≈ 143 µM).

Turning to `CCC(C)(C)NC(=O)C1CC(=O)N(CCc2ccc(F)cc2)C1` (centres undefined), the solubility (kinetic) is above 48.1 µg/mL.

In turn, `Cc1nc(=O)c(-c2ccccc2)c(C)n1-c1ccc(Br)cc1` had a solubility (kinetic) above 53.3 µg/mL.

With `NS(=O)(=O)c1ccc(NC(=O)Nc2cccc3ccccc23)cc1`, the kinetic solubility came out at 2.1 µg/mL (≈ 6.15 µM).

Molecule `COC(=O)CSC(=S)N1C(C)CCCC1C` (centres undefined) displayed a solubility (kinetic) of 31.1 µg/mL (≈ 119 µM). Compared with the last molecule, the solubility kinetic is about 15-fold higher.
